Among the test systems are KM-20L2; SN12C; LOX IMVI; KM12; HL-60; OVCAR-3; HOP-92; HCT-116; IGROV-1; SK-MEL-5; OVCAR-5; RXF 393; HOP-62; EKVX; UACC-62; MCF7; UO-31; XF498; DU-145; Hs-578T.
Test in all cases: growth of human tumour cells (NCI), 48 h

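Step 1: Grow cells in 96-well plates. Step 2: Expose to compound for 48 hours at 5 concentrations. Step 3: Interpolate endpoints linearly; if unreached, use highest concentration. At the GI50, growth is halved.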 Calls of active or inactive are those of the source. No stated cut-off is given here; in the data, active = GI50 up to about 1.1 µM and inactive = higher.

For `CCCCCCCCCCCC1=C(O)C(=O)C=C(O)C1=O` [EMBELIN], the GI50 is 7.43 µM (inactive) with KM-20L2; 4.73 µM (inactive) in the assay on SN12C; 7.35 µM (inactive) in the assay on LOX IMVI; 6.38 µM (inactive) with KM12; 3.95 µM (inactive) in the assay with HL-60; 4.71 µM (inactive) in the assay on OVCAR-3. Also, the GI50 in the assay with HOP-92 was 4.09 µM (inactive); in the assay with HCT-116, 9.2 µM (inactive); with IGROV-1, 6.76 µM (inactive); with SK-MEL-5 it was 4.84 µM (inactive); in the assay with OVCAR-5 it was 8.83 µM (inactive); with RXF 393, 12.9 µM (inactive). For the same compound, the GI50 was 5.56 µM (inactive) in the assay with HOP-62; 7.31 µM (inactive) in the assay with EKVX; 4.11 µM (inactive) in the assay with UACC-62; 7.64 µM (inactive) with MCF7; 5.56 µM (inactive) with UO-31.

As to `CC1C[C@]2(C[C@@H](C)C(=O)O2)OC2CC3(C)C4CCC5C(C)(C)OC(=O)CC[C@@]56C[C@@]46CC[C@]3(C)C12` (some centres not stated), the GI50 with SN12C is > 100 µM (inactive); in the assay with LOX IMVI it was > 100 µM (inactive); with KM12, > 100 µM (inactive); in the assay on HL-60 it was 69.8 µM (inactive); in the assay on HOP-92, > 100 µM (inactive); with HCT-116, > 100 µM (inactive). In addition, the GI50 in the assay on IGROV-1, in the assay on SK-MEL-5, in the assay on OVCAR-5, in the assay with RXF 393, with EKVX and in the assay with XF498 was > 100 µM (inactive) in each case.

Take `Nc1nn(CC(O)CO)c(=O)s1` (configuration not stated): the GI50 with KM-20L2, in the assay with SN12C, with LOX IMVI, in the assay on HL-60, in the assay with OVCAR-3 and with HCT-116 was > 100 µM (inactive) throughout. Also, the GI50 with IGROV-1, with SK-MEL-5, in the assay with OVCAR-5, with RXF 393, in the assay with HOP-62 and in the assay on EKVX was > 100 µM (inactive) in each case. Besides, the GI50 in the assay with UACC-62, in the assay on XF498 and in the assay with UO-31 was > 100 µM (inactive) each time.

For the compound `O=C1c2ccccc2-c2nnc(-c3ccc([N+](=O)[O-])cc3)cc21`, the GI50 in the assay on SN12C, with LOX IMVI, in the assay on KM12, in the assay with HL-60, in the assay on OVCAR-3 and in the assay with HOP-92 was > 10 µM (inactive) in each case. Moreover, the GI50 with HCT-116, with IGROV-1, with SK-MEL-5, with DU-145, in the assay with OVCAR-5 and in the assay with RXF 393 was > 10 µM (inactive) each time. The GI50 in the assay with HOP-62, in the assay with EKVX, in the assay with Hs-578T, with UACC-62, with MCF7 and in the assay with UO-31 was > 10 µM (inactive) throughout.

`NC(=O)C1(c2ccccc2)Nc2ccccc2S1` (configuration not stated): the GI50 with KM-20L2, with SN12C, in the assay with LOX IMVI, with KM12, in the assay on HL-60 and with OVCAR-3 was > 100 µM (inactive) throughout. The GI50 in the assay on HCT-116, in the assay on SK-MEL-5, with OVCAR-5, in the assay on RXF 393, in the assay on HOP-62 and in the assay with EKVX was > 100 µM (inactive) throughout. The GI50 in the assay on UACC-62, in the assay on XF498 and in the assay with UO-31 was > 100 µM (inactive) throughout.

Take `[N-]=[N+]=Nc1c(C=O)c(=O)n2c3c(cccc13)CCC2`: the GI50 with SN12C was 15.4 µM (inactive); with LOX IMVI, 10.3 µM (inactive); in the assay with KM12 it was 17.5 µM (inactive); in the assay with HL-60 it was 0.608 µM (active); with OVCAR-3 it was 2.28 µM (inactive); with HOP-92, 2.15 µM (inactive). In addition, the GI50 in the assay with HCT-116 is 3.15 µM (inactive); with IGROV-1, 11.9 µM (inactive); with SK-MEL-5 it was 13.8 µM (inactive); in the assay on DU-145 it was 5.15 µM (inactive); with OVCAR-5, 7.24 µM (inactive); in the assay with RXF 393, 1.76 µM (inactive). In addition, the GI50 in the assay on HOP-62 was 18 µM (inactive); in the assay with EKVX, 11.1 µM (inactive); with Hs-578T it was 15.3 µM (inactive); in the assay with UACC-62, 12.8 µM (inactive); with MCF7 it was 2.75 µM (inactive); in the assay on UO-31, 2.49 µM (inactive).

In the case of `O=C1Oc2ccc([N+](=O)[O-])cc2N/C1=C\C(=O)c1ccccc1`, the GI50 is 62.1 µM (inactive) with SN12C; > 100 µM (inactive) in the assay with LOX IMVI; 55.1 µM (inactive) in the assay with KM12; 62.4 µM (inactive) with HL-60; > 100 µM (inactive) in the assay on OVCAR-3; > 100 µM (inactive) with HOP-92. The GI50 with HCT-116, in the assay on IGROV-1, in the assay with SK-MEL-5, in the assay with DU-145, with OVCAR-5 and with RXF 393 was > 100 µM (inactive) throughout. Further, the GI50 in the assay on HOP-62, in the assay with EKVX, with Hs-578T, with UACC-62, with MCF7 and with UO-31 was > 100 µM (inactive) in each case.

Regarding `CCCCOP1(=O)C=CC(Cl)=C(C)C1` (configuration not stated), the GI50 with KM-20L2 was 22.8 µM (inactive); in the assay on SN12C, 20 µM (inactive); in the assay with KM12, 21.5 µM (inactive); in the assay on HL-60, 16.1 µM (inactive); in the assay on OVCAR-3, 24.7 µM (inactive); in the assay with HOP-92 it was 23.2 µM (inactive). Besides, the GI50 in the assay with HCT-116 was 21.2 µM (inactive); with HOP-62, 71.3 µM (inactive); in the assay with EKVX, 70.3 µM (inactive); in the assay on UACC-62, 22.3 µM (inactive); in the assay on XF498 it was 19.2 µM (inactive); with UO-31 it was 41.8 µM (inactive).

For the compound `O=C1C(Cl)=C(N2CCC[C@H]2CO)C(=O)c2c(O)ccc(O)c21`, the GI50 with SN12C was 1.71 µM (inactive); with LOX IMVI, 2.09 µM (inactive); in the assay with KM12, 4.34 µM (inactive); with HL-60, 0.0724 µM (active); in the assay on OVCAR-3 it was 2.56 µM (inactive); with HOP-92, 1.72 µM (inactive). Besides, the GI50 in the assay with HCT-116 is 1.64 µM (inactive); with IGROV-1 it was 4.95 µM (inactive); in the assay on SK-MEL-5 it was 1.73 µM (inactive); in the assay on DU-145 it was 4.38 µM (inactive); with OVCAR-5, > 10 µM (inactive); in the assay with RXF 393, 1.99 µM (inactive). In addition, the GI50 was > 10 µM (inactive) in the assay on HOP-62; 9.16 µM (inactive) in the assay on EKVX; 2.26 µM (inactive) in the assay with Hs-578T; 2.04 µM (inactive) in the assay with UACC-62; 1.81 µM (inactive) with MCF7; 2.24 µM (inactive) in the assay on UO-31.

With `O=C1C2Cc3ccccc3CN2C(=O)N1CN1CCCCC1` (configuration not stated), the GI50 in the assay on KM-20L2 is > 100 µM (inactive); in the assay on SN12C, > 100 µM (inactive); in the assay with LOX IMVI, > 100 µM (inactive); with KM12, > 100 µM (inactive); in the assay with HL-60 it was 26.6 µM (inactive); in the assay with OVCAR-3, > 100 µM (inactive). Besides, the GI50 in the assay on IGROV-1 was > 100 µM (inactive); in the assay with SK-MEL-5 it was > 100 µM (inactive); with OVCAR-5, > 100 µM (inactive); in the assay on HOP-62, > 100 µM (inactive); in the assay with UACC-62, 78 µM (inactive); with XF498, > 100 µM (inactive). Further, in the assay with UO-31, the GI50 is > 100 µM (inactive).

For `COC(=O)C1(c2ccc(N(C)C)cc2OC)CCCN(C(=O)Oc2ccccc2[N+](=O)[O-])CCc2c1[nH]c1ccccc21` (configuration not stated), the GI50 with SN12C is > 100 µM (inactive); in the assay with LOX IMVI it was > 100 µM (inactive); in the assay on KM12, > 100 µM (inactive); in the assay with HL-60 it was 22.9 µM (inactive); in the assay with OVCAR-3, > 100 µM (inactive); in the assay with HOP-92, > 100 µM (inactive). Besides, the GI50 in the assay with HCT-116, with IGROV-1, in the assay with SK-MEL-5, with DU-145, in the assay with OVCAR-5 and in the assay with RXF 393 was > 100 µM (inactive) in each case. Besides, the GI50 is > 100 µM (inactive) in the assay on HOP-62; > 100 µM (inactive) in the assay on EKVX; > 100 µM (inactive) in the assay with Hs-578T; > 100 µM (inactive) with UACC-62; > 100 µM (inactive) in the assay with MCF7; 51.4 µM (inactive) in the assay with UO-31.

Take `CCCCOP(C)(=O)C(NC(=O)OCC)(C(F)(F)F)C(F)(F)F` (configuration not stated): the GI50 with SN12C, in the assay on LOX IMVI, with KM12, with HL-60, in the assay on OVCAR-3 and in the assay with HOP-92 was > 100 µM (inactive) each time. Besides, the GI50 in the assay on HCT-116, in the assay on IGROV-1, in the assay with SK-MEL-5, in the assay with DU-145, in the assay with OVCAR-5 and with RXF 393 was > 100 µM (inactive) in each case. Further, the GI50 in the assay on HOP-62, in the assay with EKVX, in the assay on Hs-578T, with UACC-62, with MCF7 and in the assay on UO-31 was > 100 µM (inactive) each time.

Source of the values: ChEMBL document CHEMBL1201862, “PubChem BioAssay data set” (2004).
